Earlier results as cited in patent US9655859B2, “Accordion pill comprising levodopa for an improved treatment of Parkinson's disease symptoms” (INTEC PHARMA LTD., priority 2010, dated 2017).

Molecular target: T1, peripheral DOPA decarboxylase (Homo sapiens, UniProt P20711)
T1 construct: host or cells: endogenous enzyme of peripheral tissues in vivo
T1 sequence (P20711 1-480): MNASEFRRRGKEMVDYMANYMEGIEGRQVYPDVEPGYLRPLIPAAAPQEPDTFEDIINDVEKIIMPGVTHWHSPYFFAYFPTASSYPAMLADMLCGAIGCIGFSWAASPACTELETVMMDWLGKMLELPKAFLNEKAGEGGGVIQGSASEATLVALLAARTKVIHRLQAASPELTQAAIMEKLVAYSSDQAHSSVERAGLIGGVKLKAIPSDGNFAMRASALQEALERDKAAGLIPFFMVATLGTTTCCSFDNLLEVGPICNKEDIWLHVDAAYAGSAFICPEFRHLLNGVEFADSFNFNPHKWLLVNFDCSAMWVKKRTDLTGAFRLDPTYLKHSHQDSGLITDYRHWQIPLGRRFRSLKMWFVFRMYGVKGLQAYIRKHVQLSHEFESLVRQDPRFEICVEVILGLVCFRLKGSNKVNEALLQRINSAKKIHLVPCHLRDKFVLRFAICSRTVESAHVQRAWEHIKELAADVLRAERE
Details: studies cited

C[C@@](Cc1ccc(O)c(O)c1)(NN)C(=O)O [carbidopa]
carbidopa amount saturating peripheral DOPA decarboxylase: 70 to 100 mg a day
